The term pIC50 denotes the IC50 on a negative log10 scale, so that one unit is a factor of ten.

pIC50: −log10 of the molar value.

We go through 30 compounds from patent US5081242A, “6-benzoxazinyl- and 6-benzothiazinyl 2,3,4,5-tetrahydropyridazin-3-ones” (Ortho Pharmaceutical Corporation, priority 1991, dated 1992).

The test system of one experiment is adult mongrel dogs. As to the kind of experiment: Cardiotonic activity in anesthetized dogs (myocardial contractile force, i.v.). Particulars: Canis lupus familiaris, iv, vs pretreatment control, read-out: CF: Percent increase in cardiac force; for change in vivo at 1.87 mg/kg: i.v. dose 1.87 mpk; for change in vivo at 0.47 mg/kg: i.v. dose 0.47 mpk. Type of experiment: in vivo. The procedure: The cardiotonic activity of the compounds was determined in accordance with the method of Alousi, A. A., et al., J. Cir. Res. 45, 666 (1979). Basically, adult mongrel dogs were anesthetized with sodium pentobarbital and artificially respired. Arterial pressure was recorded via a femoral artery and the pressure pulse used to trigger a cardiotachometer for heart rate. Left ventricular pressure was measured with a Millar catheter and dP/dt was derived. Cardiac output was determined by measuring ascending aortic blood flow with an electromagnetic flow probe and myocardial contractile force was measured with a Walton Brodie strain gauge sutured to the right ventricle. Lead II EKG was also recorded. A standard does of dopamine was administered to assess myocardial responsiveness. Test compounds were administered by i.v. infusion or bolus administration and the effects on cardiovascular parameters were determined. Dose-related effects of the test compound on BP, HR, dP/dt max., C.F. and C.O. were compared to pretreatment control values and expressed as a percentage change.

For experiment [1], the target named is cyclic nucleotide phosphodiesterase. The experiment can be described thus: Phosphodiesterase inhibitory activity (cyclic AMP hydrolysis). The class given is biochemical. Particulars: read-out: IC50 (50% inhibition of cyclic nucleotide phosphodiesterase activity); cyclic AMP 0.10-1.0 μM, pH 7.4.

With `CC1CC(=O)NN=C1c1ccc2c(c1)NCCO2` (racemic) [Example 15, 6-(3,4-Dihydro-1,4(2H)-benzoxazin-6-yl)-2,3,4,5-tetrahydro-5-methylpyridazin-3-one], in the experiment with adult mongrel dogs, the change in vivo at 1.87 mg/kg is 125%. Besides, the pIC50 in experiment [1] is 5.10.

`CC(=O)N1CCOc2ccc(C3=NNC(=O)CC3C)cc21` (racemic) [Example 16, 6-(4-Acetyl-3,4-dihydro-1,4(2H)-benzoxazin-6-yl)-2,3,4,5-tetrahydro-5-methylpyridazin-3-one]: in the experiment on adult mongrel dogs, the change in vivo at 1.87 mg/kg stood at 173%. For the same compound, the pIC50 in experiment [1] is 4.52.

As for `CC1CC(=O)NN=C1c1ccc2c(c1)N(S(C)(=O)=O)CCO2` (racemic) [Example 17, 6-(3,4-Dihydro-4-methanesulfonyl-1,4(2H)-benzoxazin-6-yl)-2,3,4,5-tetrahydro-5-methylpyridazin-3-one], the change in vivo at 1.87 mg/kg with adult mongrel dogs is 62%. Moreover, the pIC50 in experiment [1] was 5.40.

Turning to `CC1CNc2cc(C3=NNC(=O)CC3)ccc2O1` (racemic) [Example 18, 6-(3,4-Dihydro-2-methyl-1,4(2H)-benzoxazin-6-yl)-2,3,4,5-tetrahydropyridazin-3-one], the change in vivo at 0.47 mg/kg in the experiment on adult mongrel dogs worked out at 50%. Moreover, the pIC50 in experiment [1] was 5.10.

For the compound `CC1CC(=O)NN=C1c1ccc2c(c1)NC(=O)CO2` (racemic) [Example 22, 6-(3,4-Dihydro-3-oxo-1,4(2H)-benzoxazin-6-yl)-2,3,4,5-tetrahydro-5-methylpyridazin-3-one], the change in vivo at 0.47 mg/kg with adult mongrel dogs is 136%. The pIC50 in experiment [1] is 5.70.

Regarding `CC1CC(=O)NN=C1c1ccc2c(c1)N(C)C(=O)CO2` (racemic) [Example 23, 6-(3,4-Dihydro-4-methyl-3-oxo-1,4(2H)-benzoxazin-6-yl)-2,3,4,5-tetrahydro-5-methylpyridazin-3-one], the change in vivo at 0.47 mg/kg in the experiment with adult mongrel dogs was found to be 134%. Besides, the pIC50 in experiment [1] is 5.10.

Turning to `CC1Oc2ccc(C3=NNC(=O)CC3)cc2NC1=O` (racemic) [Example 24, 6-(3,4-Dihydro-2-methyl-3-oxo-1,4(2H)-benzoxazin-6-yl)-2,3,4,5-tetrahydropyridazin-3-one], in the experiment with adult mongrel dogs, the change in vivo at 0.47 mg/kg stood at 54%. For the same compound, the pIC50 in experiment [1] is 4.85.

With `CC1Oc2ccc(C3=NNC(=O)CC3)cc2N(C)C1=O` (racemic) [Example 25, 6-(3,4-Dihydro-2,4-dimethyl-3-oxo-1,4(2H)-benzoxazin-6-yl)-2,3,4,5-tetrahydropyridazin-3-one], the change in vivo at 0.47 mg/kg in the experiment on adult mongrel dogs turned out to be 31%. Further, the pIC50 in experiment [1] is 4.89.

For the compound `Cc1cc2c(cc1C1=NNC(=O)CC1C)NC(=O)CO2` (racemic) [Example 30, 6-(3,4-Dihydro-7-methyl-3-oxo-1,4(2H)-benzoxazin-6-yl)-2,3,4,5-tetrahydro-5-methylpyridazin-3-one], the change in vivo at 0.47 mg/kg with adult mongrel dogs worked out at 124%. Further, the pIC50 in experiment [1] was 4.70.

As to `Cc1cc2c(cc1C1=NNC(=O)CC1C)N(C)C(=O)CO2` (racemic) [Example 31, 6-(3,4-Dihydro-4,7-dimethyl-3-oxo-1,4(2H)-benzoxazin-6-yl)-2,3,4,5-tetrahydro-5-methylpyridazin-3-one], the change in vivo at 0.47 mg/kg in the experiment with adult mongrel dogs came to 33%. Besides, in experiment [1], the negative logarithm of the IC50 (pIC50) is 4.42.

`Cc1cc2c(cc1C1=NNC(=O)CC1)N(C)C(=O)C(C)O2` (racemic) [Example 33, 6-(3,4-Dihydro-2,4,7-trimethyl-3-oxo-1,4(2H)-benzoxazin-6-yl)-2,3,4,5-tetrahydropyridazin-3-one]: in the experiment on adult mongrel dogs, the change in vivo at 0.47 mg/kg was found to be 8%. For the same compound, the pIC50 in experiment [1] is 4.52.

For `CC1CC(=O)NN=C1c1ccc2c(c1)OCC(=O)N2` (racemic) [Example 46, 6-(3,4-Dihydro-3-oxo-1,4(2H)-benzoxazin-7-yl)-2,3,4,5-tetrahydro-5-methylpyridazin-3-one], the change in vivo at 0.075 mg/kg in the experiment on adult mongrel dogs (i.v. dose 0.075 mpk) was determined as 130%. The pIC50 in experiment [1] is 6.52.

Consider `CS(=O)(=O)N1CCOc2ccc(C3=NNC(=O)CC3)cc21` [Example 8, 6-(3,4-Dihydro-4-methanesulfonyl-1,4(2H)-benzoxazin-6-yl)-2,3,4,5-tetrahydropyridazin-3-one], for which the change in vivo at 1.87 mg/kg in the experiment on adult mongrel dogs was found to be 98%. The pIC50 in experiment [1] was 5.02.

In the case of `CN1N=C(c2ccc3c(c2)N(S(C)(=O)=O)CCO3)CCC1=O` [Example 9, 6-(3,4-Dihydro-4-methanesulfonyl-1,4(2H)-benzoxazin-6-yl)-2,3,4,5-tetrahydro-2-methylpyridazin-3-one], the change in vivo at 1.87 mg/kg with adult mongrel dogs was determined as 62%. The pIC50 in experiment [1] is 4.00.

As for `CCCCCN1N=C(c2ccc3c(c2)N(S(C)(=O)=O)CCO3)CCC1=O` [Example 10, 6-(3,4-Dihydro-4-methanesulfonyl-1,4(2H)-benzoxazin-6-yl)-2,3,4,5-tetrahydro-2-pentylpyridazin-3-one], the change in vivo at 1.87 mg/kg in the experiment with adult mongrel dogs is 18%.

Consider `C=CCN1N=C(c2ccc3c(c2)N(S(C)(=O)=O)CCO3)CCC1=O` [Example 11, 6-(3,4-Dihydro-4-methanesulfonyl-1,4(2H)-benzoxazin-6-yl)-2,3,4,5-tetrahydro-2-(2-propenyl)pyridazin-3-one], for which, in the experiment with adult mongrel dogs, the change in vivo at 1.87 mg/kg came to 41%.

For the compound `O=C1CCC(c2ccc3c(c2)NCCO3)=NN1` [Example 12, 6-(3,4-Dihydro-1,4(2H)-benzoxazin-6-yl)-2,3,4,5-tetrahydropyridazin-3-one], the change in vivo at 1.87 mg/kg in the experiment with adult mongrel dogs was 92%.

As for `CC(=O)N1CCOc2ccc(C3=NNC(=O)CC3)cc21` [Example 13, 6-(4-Acetyl-3,4-dihydro-1,4(2H)-benzoxazin-6-yl)-2,3,4,5-tetrahydropyridazin-3-one], in the experiment with adult mongrel dogs, the change in vivo at 1.87 mg/kg came out at 71%. Further, the pIC50 in experiment [1] was 4.00.

Consider `COc1ccc(C(=O)N2CCOc3ccc(C4=NNC(=O)CC4)cc32)cc1OC` [Example 14, 6-(3,4-Dihydro-4-(3,4-dimethoxyphenylcarbonyl)-1,4(2H)-benzoxazin-6-yl)-2,3,4,5-tetrahydropyridazin-3-one], for which, in the experiment with adult mongrel dogs, the change in vivo at 1.87 mg/kg turned out to be 30%. Moreover, in experiment [1], the pIC50 is 4.10.

With `CC1CNc2cc(C3=NNC(=O)CC3C)ccc2O1` (centres unmarked) [Example 19, 6-(3,4-Dihydro-2-methyl-1,4(2H)-benzoxazin-6-yl)-2,3,4,5-tetrahydro-5-methylpyridazin-3-one], the change in vivo at 0.47 mg/kg with adult mongrel dogs came to 98%. Also, the pIC50 in experiment [1] was 4.40.

For the compound `O=C1CCC(c2ccc3c(c2)NC(=O)CO3)=NN1` [Example 20, 6-(3,4-Dihydro-3-oxo-1,4(2H)-benzoxazin-6-yl)-2,3,4,5-tetrahydropyridazin-3-one], in the experiment on adult mongrel dogs, the change in vivo at 1.87 mg/kg came to 71%. For the same compound, in experiment [1], the pIC50 was 3.20.

On to `CN1C(=O)COc2ccc(C3=NNC(=O)CC3)cc21` [Example 21, 6-(3,4-Dihydro-4-methyl-3-oxo-1,4(2H)-benzoxazin-6-yl)-2,3,4,5-tetrahydropyridazin-3-one], for which the change in vivo at 0.47 mg/kg in the experiment on adult mongrel dogs came to 74%. In experiment [1], the pIC50 was 4.74.

As to `CC1CC(=O)NN=C1c1ccc2c(c1)NC(=O)C(C)O2` (centres unmarked) [Example 26, 6-(3,4-Dihydro-2-methyl-3-oxo-1,4(2H)-benzoxazin-6-yl)-2,3,4,5-tetrahydro-5-methylpyridazin-3-one], the change in vivo at 0.47 mg/kg in the experiment with adult mongrel dogs stood at 156%. The pIC50 in experiment [1] was 5.30.

As to `CC1CC(=O)NN=C1c1ccc2c(c1)N(C)C(=O)C(C)O2` (centres unmarked) [Example 27, 6-(3,4-Dihydro-2,4-dimethyl-3-oxo-1,4(2H)-benzoxazin-6-yl)-2,3,4,5-tetrahydro-5-methylpyridazin-3-one], the change in vivo at 0.47 mg/kg in the experiment with adult mongrel dogs was found to be 117%. Also, in experiment [1], the pIC50 is 5.22.

For `Cc1cc2c(cc1C1=NNC(=O)CC1)NC(=O)CO2` [Example 28, 6-(3,4-Dihydro-7-methyl-3-oxo-1,4(2H)-benzoxazin-6-yl)-2,3,4,5-tetrahydropyridazin-3-one], the change in vivo at 0.47 mg/kg in the experiment on adult mongrel dogs is 46%. Also, the pIC50 in experiment [1] is 4.82.

Regarding `Cc1cc2c(cc1C1=NNC(=O)CC1)N(C)C(=O)CO2` [Example 29, 6-(3,4-Dihydro-4,7-dimethyl-3-oxo-1,4(2H)-benzoxazin-6-yl)-2,3,4,5-tetrahydropyridazin-3-one], the change in vivo at 0.47 mg/kg in the experiment on adult mongrel dogs stood at 12%. Further, in experiment [1], the pIC50 is 4.25.

`CC1CC(=O)NN=C1c1ccc2c(c1)N(C(C)C)C(=O)C(C)O2` (centres unmarked) [Example 36, 6-(3,4-Dihydro-2-methyl-4-(1-methylethyl)-3-oxo-1,4(2H)-benzoxazin-6-yl)-2,3,4,5-tetrahydro-5-methylpyridazin-3-one]: the change in vivo at 0.47 mg/kg with adult mongrel dogs came out at 40%. Moreover, the pIC50 in experiment [1] is 4.62.

On to `CC1CC(=O)NN=C1c1ccc2c(c1)N(C1CCCC1)C(=O)C(C)O2` (centres unmarked) [Example 37, 6-(3,4-Dihydro-4-cyclopentyl-2-methyl-3-oxo-1,4(2H)-benzoxazin-6-yl)-2,3,4,5-tetrahydro-5-methylpyridazin-3-one], for which the change in vivo at 0.47 mg/kg with adult mongrel dogs came out at 4%. For the same compound, the pIC50 in experiment [1] was 5.10.

As for `Cc1cc2c(c(C3=NNC(=O)CC3)c1)OCC(=O)N2` [Example 38, 6-(3,4-Dihydro-6-methyl-3-oxo-1,4(2H)-benzoxazin-8-yl)-2,3,4,5-tetrahydropyridazin-3-one], the change in vivo at 0.47 mg/kg with adult mongrel dogs came to 24%. The pIC50 in experiment [1] is 4.51.

For the compound `Cc1cc2c(c(C3=NNC(=O)CC3C)c1)OCCN2` (centres unmarked) [Example 42, 6-(3,4-Dihydro-6-methyl-1,4(2H)-benzoxazin-8-yl)-2,3,4,5-tetrahydro-5-methylpyridazin-3-one], the change in vivo at 0.47 mg/kg in the experiment with adult mongrel dogs is 15%.
